For 8 compounds, IC50 and Emax results are on record in US20190119200A1, “TERTIARY AMIDES AND METHOD OF USE” (AbbVie Inc., priority 2016, published 2019).

Assay [1] deals with LPA-induced MCP-1 in NRK-49F cells. Nature of the assay: LPA-induced MCP-1 AlphaLISA assay. Type of assay: cell-based. The conditions noted are these: Rattus norvegicus, final LPA 10 μM, 7 hours; for Emax: read-out: Maximum Inhibition. Put shortly:
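NRK-49F rat fibroblasts, serum-starved overnight, pretreated with compound for 30 min at 37 °C (1% DMSO final), then stimulated with 10 μM LPA final. MCP-1 in the supernatant was measured by mouse/rat CCL2 AlphaLISA. IC50 values came from four-parameter logistic fits of the ratio data.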
For orientation: Bead proximity is the source of the signal in Alpha formats.

The target in assay [2] is T1, LPAR1 (Homo sapiens, UniProt Q92633).
T1 construct: host or cells: U2OS
T1 sequence (Q92633 whole entry): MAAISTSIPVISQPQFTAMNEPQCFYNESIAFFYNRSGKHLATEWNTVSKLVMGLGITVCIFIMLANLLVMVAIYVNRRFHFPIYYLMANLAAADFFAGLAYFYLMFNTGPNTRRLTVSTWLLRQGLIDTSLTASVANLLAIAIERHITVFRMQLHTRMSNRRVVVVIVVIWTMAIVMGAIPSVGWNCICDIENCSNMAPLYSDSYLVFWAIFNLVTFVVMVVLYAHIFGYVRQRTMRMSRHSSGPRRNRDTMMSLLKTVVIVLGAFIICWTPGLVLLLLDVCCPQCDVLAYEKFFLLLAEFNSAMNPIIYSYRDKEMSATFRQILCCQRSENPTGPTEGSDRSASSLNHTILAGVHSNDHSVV
Description: LPAR1 FLIPR Assay. Type of assay: cell-based. The note with it: U2OS cells stably expressing LPAR1, LPA (EC80), Calcium 6 FLIPR dye; for Emax: read-out: Maximum Inhibition. The procedure, abridged:
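Calcium flux read-out (515-575 nm, FLIPR) in LPAR1-expressing U2OS cells after LPA challenge at EC80, given 3 min after compound addition; cells carried Calcium 6 dye loaded 2 h at 37° C. Eleven-point 3-fold dilutions were fitted with a four-parameter Hill equation for IC50.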

The term IC50 denotes the midpoint of a concentration-inhibition curve. `COc1cc(C(=O)N(CCCCC(=O)O)CCc2ccccc2)cc(OC)c1C` [Example 95, 5-[(3,5-dimethoxy-4-methylbenzoyl)(2-phenylethyl)amino]pentanoic Acid]: in assay [1], the half-inhibitory concentration (IC50) was over 10000 nM and the Emax is 18%. In addition, in assay [2], the IC50 is over 30000 nM and the Emax came out at 10%.
With `COc1cc(C(=O)N(CCCOC(=O)NS(C)(=O)=O)CCCc2ccccc2)cc(OC)c1C` [Example 186, 3-[(3,5-dimethoxy-4-methylbenzoyl)(3-phenylpropyl)amino]propyl (methanesulfonyl)carbamate], the IC50 in assay [1] amounted to 7050 nM; in assay [2] it was 65 nM. In addition, the Emax in assay [1] was determined as 54%; in assay [2] it was 83%.
The like results for `COc1cc(C(=O)N(CCCCC(=O)NS(=O)(=O)c2ccncc2)CCCc2ccccc2)cc(OC)c1C` [Example 143, 3,5-dimethoxy-4-methyl-N-{5-oxo-5-[(pyridine-4-sulfonyl)amino]pentyl}-N-(3-phenylpropyl)benzamide] were, in that order, 1350 nM, 81 nM, 66% and 83%.
With `COc1cc(C(=O)N(CCCCC(=O)O)CCCc2ccccc2)ccc1[N+](=O)[O-]` [Example 22, 5-[(3-methoxy-4-nitrobenzoyl)(3-phenylpropyl)amino]pentanoic Acid], the values for the IC50 in assay [1] and in assay [2] were over 9350 nM and 54 nM, respectively. Further, the figures for the Emax in assay [1] and in assay [2] were 42% and 89%, respectively.
The like results for `COc1cc(C(=O)N(CCCCC(=O)O)CCCc2ccccc2)cc2oc(C)cc12` [Example 31, 5-[(4-methoxy-2-methyl-1-benzofuran-6-carbonyl)(3-phenylpropyl)amino]pentanoic Acid] were, in that order, 5320 nM, 45 nM, 68% and 87%.
As to `COc1ccc(C2(C(=O)N(CCCCC(=O)O)CCCc3ccccc3)CCC2)cc1` [Example 86, 5-{[1-(4-methoxyphenyl)cyclobutane-1-carbonyl](3-phenylpropyl)amino}pentanoic Acid], in assay [1], 2980 nM corresponded to half-maximal inhibition (IC50) and the Emax was found to be 74%. Besides, in assay [2], the IC50 was 44 nM and the Emax was determined as 88%.
In the same order, the values of `COc1ccc(C2(C(=O)N(CCCCC(=O)O)CCCc3cccc(F)c3)CC2)cc1` [Example 92, 5-{[3-(3-fluorophenyl)propyl][1-(4-methoxyphenyl)cyclopropane-1-carbonyl]amino}pentanoic Acid] are 4490 nM, 72%, 60 nM and 90%.
The like results for `COc1cc(C(=O)N(CCCc2c(F)cccc2F)CCSCC(=O)O)cc(OC)c1C` [Example 113, [(2-{[3-(2,6-difluorophenyl)propyl](3,5-dimethoxy-4-methylbenzoyl)amino}ethyl)sulfanyl]acetic Acid] were, in that order, 1010 nM, 86%, 32 nM and 87%.
